USRE50082E1, “(5,6-dihydro)pyrimido[4,5-e]indolizines” (NETHERLANDS TRANSLATIONAL RESEARCH CENTER B.V., priority 2014, dated 2024)

Tested on: MOLT-4 cancer cell line
Assay: Cell proliferation assay, MOLT-4 cancer cell line (ATPlite);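 also: luminescence read-out, percent growth versus compound-free DMSO wells as maximum growth, start-of-incubation signal separating growth from cell death, IC50 from logistic curve fit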
Assay type: cell-based
Conditions: Homo sapiens, MOLT-4; 72 hours incubation, ATPlite 1Step; read-out: IC50 MOLT-4 cell proliferation
Protocol: 5 μL of compound solution was added and the plates were incubated for an additional 72 hours after which 25 μL of ATPlite 1Step™ (PerkinElmer, Groningen, The Netherlands) solution was added to each well. Luminescence was recorded on an Envision multimode reader. The cell signal at the start of incubation was recorded separately in order to distinguish between cell population growth and cell death. In addition, maximum growth was determined by incubation of a duplicate without compound in the presence of 0.4% DMSO. Percentage growth was used as the main y-axis signal. IC50s were fitted by non-linear regression using IDBS XLfit™5 using a 4-parameter logistic curve, yielding a maximum signal, minimum signal, hill-parameter and IC50.

Row | Compound | IC50 [nM]
1 | COc1cc(C(=O)NCC(C)(C)O)ccc1Nc1ncc2c(n1)-n1ccc(C(=O)Nc3c(C)cccc3C)c1CC2 [Example 1, N-(2,6-dimethylphenyl)-2-[4-[(2-hydroxy-2-methyl-propyl)carbamoyl]-2-methoxy-anilino]-5,6-dihydropyrimido[4,5-e]indolizine-7-carboxamide] | < 50
2 | Cc1cc(N2CCN(C)CC2)ccc1Nc1ncc2c(n1)-n1ccc(C(=O)Nc3c(C)cccc3Cl)c1CC2 [Example 2, N-(2-chloro-6-methyl-phenyl)-2-[2-methyl-4-(4-methylpiperazin-1-yl)anilino]-5,6-dihydropyrimido[4,5-e]indolizine-7-carboxamide] | < 50
3 | COc1cc(N2CCOCC2)ccc1Nc1ncc2c(n1)-n1ccc(C(=O)Nc3c(C)cccc3Br)c1CC2 [Example 3, N-(2-bromo-6-methyl-phenyl)-2-(2-methoxy-4-morpholino-anilino)-5,6-dihydropyrimido[4,5-e]indolizine-7-carboxamide] | 50 to 150
4 | CCc1cccc(C)c1NC(=O)c1ccn2c1CCc1cnc(Nc3ccc(N4CCN(C)CC4)cc3)nc1-2 [Example 4, N-(2-ethyl-6-methyl-phenyl)-2-[4-(4-methylpiperazin-1-yl)anilino]-5,6-dihydropyrimido[4,5-e]indolizine-7-carboxamide] | < 50
5 | Cc1cccc(Cl)c1NC(=O)c1ccn2c1CCc1cnc(Nc3ccc(N4CCOCC4)nc3C)nc1-2 [Example 5, N-(2-chloro-6-methyl-phenyl)-2-[(2-methyl-6-morpholino-3-pyridyl)amino]-5,6-dihydropyrimido[4,5-e]indolizine-7-carboxamide] | < 50
6 | Cc1cccc(C)c1NC(=O)c1ccn2c1CCc1cnc(Nc3ccc(C(=O)NC4CCN(C)CC4)cc3F)nc1-2 [Example 7, N-(2,6-dimethylphenyl)-2-[2-fluoro-4-[(1-methyl-4-piperidyl)carbamoyl]anilino]-5,6-dihydropyrimido[4,5-e]indolizine-7-carboxamide] | 50 to 150
7 | CCc1n[nH]c(CC)c1NC(=O)c1ccn2c1CCc1cnc(Nc3ccc(N4CCN(C)CC4)cc3C)nc1-2 [Example 9, N-(3,5-diethyl-1H-pyrazol-4-yl)-2-[2-methyl-4-(4-methylpiperazin-1-yl)anilino]-5,6-dihydropyrimido[4,5-e]indolizine-7-carboxamide] | < 50
8 | COc1cc(N2CCN(C)CC2)ccc1Nc1ncc2c(n1)-n1ccc(C(=O)Nc3c(C)cccc3OC)c1CC2 [Example 10, N-(2-methoxy-6-methyl-phenyl)-2-[2-methoxy-4-(4-methylpiperazin-1-yl)anilino]-5,6-dihydropyrimido[4,5-e]indolizine-7-carboxamide] | 50 to 150
9 | COc1cc(N2CCN(C)CC2)ccc1Nc1ncc2c(n1)-n1ccc(C(=O)Nc3c(C(C)C)cccc3C(C)C)c1CC2 [Example 11, N-(2,6-diisopropylphenyl)-2-[2-methoxy-4-(4-methylpiperazin-1-yl)anilino]-5,6-dihydropyrimido[4,5-e]indolizine-7-carboxamide] | 50 to 150
10 | CCc1nn(CCOC)c(CC)c1NC(=O)c1ccn2c1CCc1cnc(Nc3ccc(OC4CCN(C)CC4)cc3C)nc1-2 [Example 13, N-[3,5-diethyl-1-(2-methoxyethyl)pyrazol-4-yl]-2-[2-methyl-4-[(1-methyl-4-piperidyl)oxy]anilino]-5,6-dihydropyrimido[4,5-e]indolizine-7-carboxamide] | < 50
11 | CCOc1cc(C(=O)NC2CCN(C)CC2)ccc1Nc1ncc2c(n1)-n1ccc(C(=O)Nc3c(C)cccc3CC)c1CC2 [Example 14, 2-[2-Ethoxy-4-[(1-methyl-4-piperidyl)carbamoyl]anilino]-N-(2-ethyl-6-methyl-phenyl)-5,6-dihydropyrimido[4,5-e]indolizine-7-carboxamide] | 50 to 150
12 | COc1cc(OC2CCN(C)CC2)ccc1Nc1ncc2c(n1)-n1ccc(C(=O)Nc3c(C)n[nH]c3C)c1CC2 [Example 15, N-(3,5-dimethyl-1H-pyrazol-4-yl)-2-[2-methoxy-4-[(1-methyl-4-piperidyl)oxy]anilino]-5,6-dihydropyrimido[4,5-e]indolizine-7-carboxamide] | 50 to 150
13 | COCCn1nc(C)c(NC(=O)c2ccn3c2CCc2cnc(Nc4ccc(N5CCNCC5)cc4OC)nc2-3)c1C [Example 16, N-[1-(2-methoxyethyl)-3,5-dimethyl-pyrazol-4-yl]-2-(2-methoxy-4-piperazin-1-yl-anilino)-5,6-dihydropyrimido[4,5-e]indolizine-7-carboxamide] | 50 to 150
14 | COc1cc(N2CCNCC2)ccc1Nc1ncc2c(n1)-n1ccc(C(=O)Nc3c(C)cccc3C)c1CC2 [Example 17, N-(2,6-dimethylphenyl)-2-(2-methoxy-4-piperazin-1-yl-anilino)-5,6-dihydropyrimido[4,5-e]indolizine-7-carboxamide] | < 50
15 | CCc1n[nH]c(CC)c1NC(=O)c1ccn2c1CCc1cnc(Nc3ccc(N4CCNCC4)cc3OC)nc1-2 [Example 18, N-(3,5-diethyl-1H-pyrazol-4-yl)-2-(2-methoxy-4-piperazin-1-ylanilino)-5,6-dihydropyrimido[4,5-e]indolizine-7-carboxamide] | < 50
16 | CCc1nn(CCOC)c(CC)c1NC(=O)c1ccn2c1CCc1cnc(Nc3ccc(N4CCNCC4)cc3OC)nc1-2 [Example 19, N-[3,5-diethyl-1-(2-methoxyethyl)pyrazol-4-yl]-2-(2-methoxy-4-piperazin-1-yl-anilino)-5,6-dihydropyrimido[4,5-e]indolizine-7-carboxamide] | < 50
17 | CCc1cccc(CC)c1NC(=O)c1ccn2c1CCc1cnc(Nc3ccc(N4CCN(C)CC4)cc3OC)nc1-2 [Example 20, N-(2,6-diethylphenyl)-2-[2-methoxy-4-(4-methylpiperazin-1-yl)anilino]-5,6-dihydropyrimido[4,5-e]indolizine-7-carboxamide] | 50 to 150
18 | COc1cc(N2CCN(C)CC2)ccc1Nc1ncc2c(n1)-n1ccc(C(=O)Nc3c(C)cc(C)cc3C)c1CC2 [Example 22, 2-[2-Methoxy-4-(4-methylpiperazin-1-yl)anilino]-N-(2,4,6-trimethylphenyl)-5,6-dihydropyrimido[4,5-e]indolizine-7-carboxamide] | < 50
19 | COc1cc(N2CCN(C)CC2)ccc1Nc1ncc2c(n1)-n1ccc(C(=O)Nc3c(C)cccc3CO)c1CC2 [Example 23, N-[2-(hydroxymethyl)-6-methyl-phenyl]-2-[2-methoxy-4-(4-methylpiperazin-1-yl)anilino]-5,6-dihydropyrimido[4,5-e]indolizine-7-carboxamide] | 50 to 150
20 | COc1cc(N2CCN(C)CC2)ccc1Nc1ncc2c(n1)-n1ccc(C(=O)Nc3c(C)cccc3F)c1CC2 [Example 24, N-(2-fluoro-6-methyl-phenyl)-2-[2-methoxy-4-(4-methylpiperazin-1-yl)anilino]-5,6-dihydropyrimido[4,5-e]indolizine-7-carboxamide] | 50 to 150
21 | COc1cc(N2CCN(C)CC2)ccc1Nc1ncc2c(n1)-n1ccc(C(=O)Nc3c(C)ccnc3Cl)c1CC2 [Example 25, N-(2-chloro-4-methyl-3-pyridyl)-2-[2-methoxy-4-(4-methylpiperazin-1-yl)anilino]-5,6-dihydropyrimido[4,5-e]indolizine-7-carboxamide] | 50 to 150
22 | COCCn1nc(C)c(NC(=O)c2ccn3c2CCc2cnc(Nc4ccc(N5CCN(C)CC5)cc4OC)nc2-3)c1C [Example 26, N-[1-(2-methoxyethyl)-3,5-dimethyl-pyrazol-4-yl]-2-[2-methoxy-4-(4-methylpiperazin-1-yl)anilino]-5,6-dihydropyrimido[4,5-e]indolizine-7-carboxamide] | 50 to 150
23 | COc1cc(N2CCN(C)CC2)ccc1Nc1ncc2c(n1)-n1ccc(C(=O)Nc3c(C)n[nH]c3C)c1CC2 [Example 27, N-(3,5-dimethyl-1H-pyrazol-4-yl)-2-[2-methoxy-4-(4-methylpiperazin-1-yl)anilino]-5,6-dihydropyrimido[4,5-e]indolizine-7-carboxamide] | 50 to 150
24 | COc1cc(N2CCN(C)CC2)ccc1Nc1ncc2c(n1)-n1ccc(C(=O)Nc3c(C)nn(C)c3Cl)c1CC2 [Example 28, N-(5-chloro-1,3-dimethyl-pyrazol-4-yl)-2-[2-methoxy-4-(4-methylpiperazin-1-yl)anilino]-5,6-dihydropyrimido[4,5-e]indolizine-7-carboxamide] | 50 to 150
25 | CCc1ccccc1NC(=O)c1ccn2c1CCc1cnc(Nc3ccc(N4CCN(C)CC4)cc3OC)nc1-2 [Example 29, N-(2-ethylphenyl)-2-[2-methoxy-4-(4-methylpiperazin-1-yl)anilino]-5,6-dihydropyrimido[4,5-e]indolizine-7-carboxamide] | 50 to 150
26 | CCOc1cc(N2CCN(C)CC2)ccc1Nc1ncc2c(n1)-n1ccc(C(=O)Nc3c(CC)n[nH]c3CC)c1CC2 [Example 31, N-(3,5-diethyl-1H-pyrazol-4-yl)-2-[2-ethoxy-4-(4-methylpiperazin-1-yl)anilino]-5,6-dihydropyrimido[4,5-e]indolizine-7-carboxamide] | 50 to 150
27 | CCOc1cc(N2CCN(C)CC2)ccc1Nc1ncc2c(n1)-n1ccc(C(=O)Nc3c(C)cccc3CC)c1CC2 [Example 32, 2-[2-Ethoxy-4-(4-methylpiperazin-1-yl)anilino]-N-(2-ethyl-6-methyl-phenyl)-5,6-dihydropyrimido[4,5-e]indolizine-7-carboxamide] | 50 to 150
28 | Cc1cc(N2CCOCC2)ncc1Nc1ncc2c(n1)-n1ccc(C(=O)Nc3c(C)cccc3C)c1CC2 [Example 34, N-(2,6-dimethylphenyl)-2-[(4-methyl-6-morpholino-3-pyridyl)amino]-5,6-dihydropyrimido[4,5-e]indolizine-7-carboxamide] | 50 to 150
29 | COc1cc(C(=O)NC2CCN(C)CC2)ccc1Nc1ncc2c(n1)-n1ccc(C(=O)Nc3c(C)cccc3Cl)c1CC2 [Example 35, N-(2-chloro-6-methyl-phenyl)-2-[2-methoxy-4-[(1-methyl-4-piperidyl)carbamoyl]anilino]-5,6-dihydropyrimido[4,5-e]indolizine-7-carboxamide] | < 50
30 | CCc1cccc(CC)c1NC(=O)c1ccn2c1CCc1cnc(Nc3ccc(C(=O)NC4CCN(C)CC4)cc3C)nc1-2 [Example 36, N-(2,6-diethylphenyl)-2-[2-methyl-4-[(1-methyl-4-piperidyl)carbamoyl]anilino]-5,6-dihydropyrimido[4,5-e]indolizine-7-carboxamide] | 50 to 150
